Like-named read-outs stand apart in the source and are kept apart here.
What was measured:
SARS-CoV-2 = assay: microbe, parasite or virus in culture; type: cell-based; settings: Severe acute respiratory syndrome coronavirus 2, read-out: SARS EC50
[1] = system: Recombinant Respiratory Syncytial virus strain A2 containing the firefly luciferase reporter (RSV-Fluc); assay: microbe, parasite or virus in culture; type: cell-based; settings: human respiratory syncytial virus, NHBE
MT4 cytotoxicity (CC50) = settings: human, MT4 cells, MT4 CC50, Table 4
[2] = 72 h, read-out: RSV-Fluc EC50 (NHBE), NHBE cells, three days, Table 2

SMILES | EC50 (SARS-CoV-2) | EC50 [1, 2] | EC50 ([1]; read-out: RSV EC50, Table 2a) | EC50 ([1]; read-out: RSV EC50, Table 4) | CC50 (MT4 cytotoxicity (CC50))
CCCCCCCCCCCCCCCCCCOC[C@H](COP(=O)(O)OC[C@H]1O[C@@](C#N)(c2ccc3c(N)ncnn23)[C@H](O)[C@@H]1O)OCc1cccc(OC)c1 [Example 63, ((2R,3S,4R,5R)-5-(4-aminopyrrolo[2,1-f][1,2,4]triazin-7-yl)-5-cyano-3,4-dihydroxytetrahydrofuran-2-yl)methyl ((R)-2-((3-methoxybenzyl)oxy)-3-(octadecyloxy)propyl) hydrogen phosphate] | 1.05 µM | 0.033 µM | 0.003 µM |  | 
CCCCCCCCCCCCCCCCCCOC[C@H](COP(=O)(O)OC[C@H]1O[C@@](C#N)(c2ccc3c(N)ncnn23)[C@H](O)[C@@H]1O)OCc1ccc(F)cc1 [Example 110, [(2R,3S,4R,5R)-5-(4-Aminopyrrolo[2,1-f][1,2,4]triazin-7-yl)-5-cyano-3,4-dihydroxy-tetrahydrofuran-2-yl]methyl [(2R)-2-[(4-fluorophenyl)methoxy]-3-octadecoxy-propyl] hydrogen phosphate] | 1.2 µM |  |  | 0.402 µM | 
CCCCCCCCCCCCCCCCCCCCOC[C@H](COP(=O)(O)OC[C@H]1O[C@@](C#N)(c2ccc3c(N)ncnn23)[C@H](O)[C@@H]1O)OCc1cc(F)cc(C#N)c1 [Example 125, ((2R,3S,4R,5R)-5-(4-aminopyrrolo[2,1-f][1,2,4]triazin-7-yl)-5-cyano-3,4-dihydroxytetrahydrofuran-2-yl)methyl ((R)-2-((3-cyano-5-fluorobenzyl)oxy)-3-(icosyloxy)propyl) hydrogen phosphate] |  |  |  | 0.129 µM | 2.08 µM
CCCCCCCCCCCCCCCCCCOC[C@@H](CCc1cc(F)cc(C#N)c1)COP(=O)(O)OC[C@H]1O[C@@](C#N)(c2ccc3c(N)ncnn23)[C@H](O)[C@@H]1O [Example 86, ((2R,3S,4R,5R)-5-(4-aminopyrrolo[2,1-f][1,2,4]triazin-7-yl)-5-cyano-3,4-dihydroxytetrahydrofuran-2-yl)methyl ((R)-4-(3-cyano-5-fluorophenyl)-2-((octadecyloxy)methyl)butyl) hydrogen phosphate] |  |  |  | 0.43 µM | 22 µM
CCCCCCCCCCCCCCCCCCOC[C@H](COP(=O)(O)OC[C@H]1O[C@@](C#N)(c2ccc3c(N)ncnn23)[C@H](O)[C@@H]1O)Oc1cc(C#N)ccn1 [Example 99, [(2R,3S,4R,5R)-5-(4-Aminopyrrolo[2,1-f][1,2,4]triazin-7-yl)-5-cyano-3,4-dihydroxy-tetrahydrofuran-2-yl]methyl [(2R)-2-[(4-cyano-2-pyridyl)oxy]-3-octadecoxy-propyl]hydrogen phosphate] |  |  |  |  | 1.78 µM
CCCCCCCCCCCCCCCCCCOC[C@H](COP(=O)(O)OC[C@H]1O[C@@](C#N)(c2ccc3c(N)ncnn23)[C@H](O)[C@@H]1O)Oc1ncccc1OC [Example 91, ((2R,3S,4R,5R)-5-(4-aminopyrrolo[2,1-f][1,2,4]triazin-7-yl)-5-cyano-3,4-dihydroxytetrahydrofuran-2-yl)methyl ((R)-2-((3-methoxypyridin-2-yl)oxy)-3-(octadecyloxy)propyl) hydrogen phosphate] |  |  |  | 0.046 µM | 0.454 µM
CCCCCCCCCCCCCCCCCCOC[C@H](COP(=O)(O)OC[C@H]1O[C@@](C#N)(c2ccc3c(N)ncnn23)[C@H](O)[C@@H]1O)OCc1c(F)cccc1C#N [Example 65, ((2R,3S,4R,5R)-5-(4-aminopyrrolo[2,1-f][1,2,4]triazin-7-yl)-5-cyano-3,4-dihydroxytetrahydrofuran-2-yl)methyl ((R)-2-((2-cyano-6-fluorobenzyl)oxy)-3-(octadecyloxy)propyl) hydrogen phosphate] |  | 0.061 µM | 0.061 µM |  | 
CCCCCCCCCCCCCCCCCCOC[C@H](COP(=O)(O)OC[C@H]1O[C@@](C#N)(c2ccc3c(N)ncnn23)[C@H](O)[C@@H]1O)Oc1cncc(C#N)c1 [Example 84, ((2R,3S,4R,5R)-5-(4-aminopyrrolo[2,1-f][1,2,4]triazin-7-yl)-5-cyano-3,4-dihydroxytetrahydrofuran-2-yl)methyl ((R)-2-((5-cyanopyridin-3-yl)oxy)-3-(octadecyloxy)propyl) hydrogen phosphate] |  |  |  | 0.007 µM | 0.212 µM
CCCCCCCCCCCCCCCCCCOC[C@H](COP(=O)(O)OC[C@H]1O[C@@](C#N)(c2ccc3c(N)ncnn23)[C@H](O)[C@@H]1O)OCc1cc(C#N)cc(C#N)c1 [Example 26, ((2R,3S,4R,5R)-5-(4-aminopyrrolo[2,1-f][1,2,4]triazin-7-yl)-5-cyano-3,4-dihydroxytetrahydrofuran-2-yl)methyl ((R)-2-((3,5-dicyanobenzyl)oxy)-3-(octadecyloxy)propyl) hydrogen phosphate] | 0.65 µM | 0.019 µM | 0.019 µM |  | 
CCCCCCCCCCCCCCCCOC[C@H](COP(=O)(O)OC[C@H]1O[C@@](C#N)(c2ccc3c(N)ncnn23)[C@H](O)[C@@H]1O)OCc1ccc(F)c(C#N)c1 [Example 109, [(2R,3S,4R,5R)-5-(4-Aminopyrrolo[2,1-f][1,2,4]triazin-7-yl)-5-cyano-3,4-dihydroxy-tetrahydrofuran-2-yl]methyl [(2R)-2-[(3-cyano-4-fluoro-phenyl)methoxy]-3-hexadecoxy-propyl] hydrogen phosphate] | 1.6 µM |  |  | 0.347 µM | 
CCCCCCCCCCCCCCCCCCOC[C@H](COP(=O)(O)OC[C@H]1O[C@@](C#N)(c2ccc3c(N)ncnn23)[C@H](O)[C@@H]1O)Oc1cccc(OC)n1 [Example 88, ((2R,3S,4R,5R)-5-(4-aminopyrrolo[2,1-f][1,2,4]triazin-7-yl)-5-cyano-3,4-dihydroxytetrahydrofuran-2-yl)methyl ((R)-2-((6-methoxypyridin-2-yl)oxy)-3-(octadecyloxy)propyl) hydrogen phosphate] |  |  |  | 0.031 µM | 0.201 µM
CCCCCCCCCCCCCCCCOC[C@H](COP(=O)(O)OC[C@H]1O[C@@](C#N)(c2ccc3c(N)ncnn23)[C@H](O)[C@@H]1O)OCc1cc(F)cc(C#N)c1 [Example 119, [(2R,3S,4R,5R)-5-(4-Aminopyrrolo[2,1-f][1,2,4]triazin-7-yl)-5-cyano-3,4-dihydroxy-tetrahydrofuran-2-yl]methyl [(2R)-2-[(3-cyano-5-fluoro-phenyl)methoxy]-3-hexadecoxy-propyl] hydrogen phosphate] |  |  |  | 0.03 µM | 0.404 µM
CCCCCCCCCCCCCCCCCCOC[C@H](COP(=O)(O)OC[C@H]1O[C@@](C#N)(c2ccc3c(N)ncnn23)[C@H](O)[C@@H]1O)Oc1ccccc1 [Example 87, ((2R,3S,4R,5R)-5-(4-aminopyrrolo[2,1-f][1,2,4]triazin-7-yl)-5-cyano-3,4-dihydroxytetrahydrofuran-2-yl)methyl ((R)-3-(octadecyloxy)-2-phenoxypropyl) hydrogen phosphate] |  |  |  |  | 3.1 µM
CCCCCCCCCCCCCCCCCCOC[C@H](COP(=O)(O)OC[C@H]1O[C@@](C#N)(c2ccc3c(N)ncnn23)[C@H](O)[C@@H]1O)OCc1ccccc1Cl [Example 64, ((2R,3S,4R,5R)-5-(4-aminopyrrolo[2,1-f][1,2,4]triazin-7-yl)-5-cyano-3,4-dihydroxytetrahydrofuran-2-yl)methyl ((R)-2-((2-chlorobenzyl)oxy)-3-(octadecyloxy)propyl) hydrogen phosphate] | 0.735 µM | 0.042 µM | 0.042 µM |  | 
CCCCCCCCCCCCCCCCCCOC[C@H](COP(=O)(O)OC[C@H]1O[C@@](C#N)(c2ccc3c(N)ncnn23)[C@H](O)[C@@H]1O)Oc1ccc(C#N)c(OCC)c1 [Example 85, ((2R,3S,4R,5R)-5-(4-aminopyrrolo[2,1-f][1,2,4]triazin-7-yl)-5-cyano-3,4-dihydroxytetrahydrofuran-2-yl)methyl ((R)-2-(4-cyano-3-ethoxyphenoxy)-3-(octadecyloxy)propyl) hydrogen phosphate] |  |  |  | 0.008 µM | 0.143 µM
CCCCCCCCCCCCCCCCCCOC[C@@H](COP(=O)(O)OC[C@H]1O[C@@](C#N)(c2ccc3c(N)ncnn23)[C@H](O)[C@@H]1O)Oc1ccccc1 [Example 38, ((2R,3S,4R,5R)-5-(4-aminopyrrolo[2,1-f][1,2,4]triazin-7-yl)-5-cyano-3,4-dihydroxytetrahydrofuran-2-yl)methyl ((S)-3-(octadecyloxy)-2-phenoxypropyl) hydrogen phosphate] | 10 µM |  | 0.281 µM |  | 
CCCCCCCCCCCCCCCCCCOC[C@H](COP(=O)(O)OC[C@H]1O[C@@](C#N)(c2ccc3c(N)ncnn23)[C@H](O)[C@@H]1O)OCc1cc(Cl)cc(C#N)c1 [Example 68, ((2R,3S,4R,5R)-5-(4-aminopyrrolo[2,1-f][1,2,4]triazin-7-yl)-5-cyano-3,4-dihydroxytetrahydrofuran-2-yl)methyl ((R)-2-((3-chloro-5-cyanobenzyl)oxy)-3-(octadecyloxy)propyl) hydrogen phosphate] | 0.927 µM | 0.025 µM | 0.025 µM |  | 
CCCCCCCCCCCCCCCCCCOC[C@H](COP(=O)(O)OC[C@H]1O[C@@](C#N)(c2ccc3c(N)ncnn23)[C@H](O)[C@@H]1O)OCc1cc(C#N)ccc1F [Example 66, ((2R,3S,4R,5R)-5-(4-aminopyrrolo[2,1-f][1,2,4]triazin-7-yl)-5-cyano-3,4-dihydroxytetrahydrofuran-2-yl)methyl ((R)-2-((5-cyano-2-fluorobenzyl)oxy)-3-(octadecyloxy)propyl) hydrogen phosphate] | 0.476 µM | 0.01 µM | 0.01 µM |  | 
CCCCCCCCCCCCCCCCCCOC[C@H](COP(=O)(O)OC[C@H]1O[C@@](C#N)(c2ccc3c(N)ncnn23)[C@H](O)[C@@H]1O)OCc1ccccc1C#N [Example 50, ((2R,3S,4R,5R)-5-(4-aminopyrrolo[2,1-f][1,2,4]triazin-7-yl)-5-cyano-3,4-dihydroxytetrahydrofuran-2-yl)methyl ((R)-2-((2-cyanobenzyl)oxy)-3-(octadecyloxy)propyl) hydrogen phosphate] | 0.854 µM | 0.09 µM | 0.09 µM |  | 
